Data published in PMC11785709, “Angelica gigas Nakai (Korean Dang-gui) Root Alcoholic Extracts in Health Promotion and Disease Therapy – active Phytochemicals and In Vivo Molecular Targets” (Pharmaceutical Research, 2025).
In brackets after ≈: the same amount, converted by molar mass. Several values for one entry are separate records, joined by “and”; a condition that tells them apart may be missing. Equal values may be shown once. Entries after “also recorded” stand apart in the source; their conditions may differ. Read-outs that look alike come from different tables or passages of the source.

Key:
[1] = system: CYP2C19 and 3A4; conditions: cited from earlier work
[2] = system: AChE; set-up: method as in PMID 11374978; conditions: read-out: AChE inhibition IC50; cited from earlier work
[3] = system: AR; ERα; conditions: cited from earlier work
[4] = system: carboxyesterase-2 (CES2); conditions: cited from earlier work
[5] = cited from earlier work
[6] = oral AGN 100 mg per rat (~ 300 mg/kg bw); cited from earlier work
[7] = system: human MAO-A; set-up: method as in PMID 28109809; conditions: cited from earlier work
[8] = system: paclitaxel-CINP; set-up: method as in PMID 33806325; conditions: cited from earlier work
[9] = system: most sensitive bacterial strain; assay: bactericidal activity of D, MIC; assay type: cell-based; conditions: converted value in brackets; read-out: minimal inhibitory concentration
[10] = system: kainic acid (KA)-induced status epilepticus; set-up: method as in PMID 25171200; conditions: D ip 20 mg/kg 30 min prior to KA; cited from earlier work
[11] = system: GDH; set-up: method as in PMID 36455296; conditions: read-out: GDH inhibition IC50; cited from earlier work
[12] = system: MAO-B; set-up: method as in PMID 28109809; conditions: screened at 10 μM; cited from earlier work
[13] = system: most sensitive bacterial strain; set-up: method as in PMID 12877552; conditions: cited from earlier work
[14] = cited from earlier work; remark: listed apart in the source
[15] = system: hair growth; set-up: method as in PMID 32823713; conditions: cited from earlier work
[16] = system: bacteria; assay: bactericidal activity of D, MIC (Thailand group); assay type: cell-based; conditions: converted value in brackets
[17] = system: HepG2 cells; set-up: method as in earlier work; conditions: free fatty acid mixture (oleate:palmitate = 2:1); cited from earlier work
[18] = system: TRPV1; set-up: method as in PMID 33806325; conditions: capsaicin-induced, F11 cell culture; read-out: TRPV1-Ca2+ release IC50; cited from earlier work
[19] = system: destabilization of medial meniscus (DMM) OA; set-up: method as in PMID 33878544; conditions: daily gavage, 20 mg/kg, 8 weeks after DMM; cited from earlier work
[20] = system: bacteria; set-up: method as in doi:10.7324/JAPS201331012; conditions: cited from earlier work
[21] = system: collagen/epinephrine-induced thromboembolism; set-up: method as in PMID 34575088; conditions: D at 12.5 mg/kg; cited from earlier work
[22] = system: high fat-diet induced obesity; set-up: method as in PMID 21972114; conditions: HFD plus D 200 mg/kg (ppm), 7 weeks; cited from earlier work
[23] = system: global cerebral ischemia BOCCA model; set-up: method as in PMID 33918660; conditions: cited from earlier work
[24] = system: adipose stem cells (ASCs); set-up: method as in PMID 31861646; conditions: cited from earlier work
[25] = system: CP-treated mice; set-up: method as in PMID 34875347; conditions: cited from earlier work
[26] = system: breast cancer cell; set-up: method as in PMID 36830050; conditions: concentration-dependent; cited from earlier work
[27] = rat, in vivo, iv; cited from earlier work
[28] = system: OVX-induced bone loss; set-up: method as in PMID 37866743; conditions: oral nodakenin; cited from earlier work
[29] = system: AChE; set-up: method as in PMID 17382968; conditions: ex vivo, 6 h after dose; cited from earlier work
[30] = system: AChE; set-up: method as in PMID 17382968; conditions: in vitro test; cited from earlier work
[31] = system: RANKL-induced osteoclastogenesis; set-up: method as in PMID 37866743; conditions: cell culture model; cited from earlier work
[32] = system: scopolamine-induced memory disruption; set-up: method as in PMID 17382968; conditions: 10 mg/kg, po; cited from earlier work
[33] = system: bone marrow stem cells (BMSCs); set-up: method as in PMID 37866743; conditions: cell culture exposure; cited from earlier work
[34] = system: TNBS-induced colitis; set-up: method as in PMID 39042157; conditions: cited from earlier work
[35] = system: MDA-MB231 sc breast cancer xenograft; conditions: 30 mg/kg ip twice weekly, 5-week assay; cited from earlier work
[36] = system: HFD-induced obese mice; set-up: method as in PMID 34165214; conditions: daily oral 10 and 20 mg/kg, 5 weeks; cited from earlier work
[37] = rat, in vivo, po, cited from earlier work
[38] = system: acute thermal pain models and CINP; set-up: method as in PMID 36249788; conditions: once-daily ip; hot plate, tail-flick and CINP mice; cited from earlier work
[39] = topical 0.15% D or 2% AGN root extract

SMILES: CC(C)=CC(=O)O[C@H]1Cc2cc3ccc(=O)oc3cc2OC1(C)C [D, decursin]
- Cyp isoforms for metabolism to DOH [1]: major human isoforms
- IC50 [2]: 390 µM
- IC50 ([3]; antagonist/degrader): ~5 µM
- mode of action on AR and ERα ([3]; responsive cancer cell culture models): antagonists/degraders
- CES2 contribution to metabolism to DOH [4]: further contributed
- t1/2 ([5]; 4.6 g AGN root powder per subject): 3.03 h
- tmax ([5]; in vivo): 0.44 h
- elimination of plasma D [6]: barely detectable after 7 h
- time of peak absorption, plasma D [6]: around 4 h
- IC50 ([7]; read-out: MAO-A inhibition IC50): 1.89 µM
- Ki ([7]; reversible and competitive inhibitor): 0.17 µM
- mechanical allodynia relief ([8]; first it injection of D 50 mg/kg): no relief
- duration of blunted allodynia ([8]; second and third it injections): up to 3 h
- MIC [9]: ~38 µM (≈ 12.5 µg/mL)
- behavioral seizure activity [10]: decreased behavioral seizure activity
- IC50 [11]: ~1 µM and 1 µM
- inhibitory activity on MAO-B [12]: lacked any inhibitory activity
- minimal inhibitory concentration [13]: ~ 12.5 mg/L
- relative circulating Cmax and AUC ([14]; in vivo): ~1 ×
- relative plasma Cmax ([14]; in vivo): 1 x
- Cmax ([14]; read-out: mean peak concentration Cmax, 10 men and 10 women, 800 mg INM176 AGN oral): 5.3 nM
- time at which hair growth was complete [15, 39]: 17 days
- time from which hair growth was visibly facilitated [15, 39]: 7 days
- hair growth ([15]; topical twice a day 17 days, 0.15% D or 2% AGN root extract): promoted hair growth in equal efficacy
- MIC [16]: ~98 µM (≈ 32.2 µg/mL)
- lipid accumulation [17]: suppressed lipid accumulation
- IC50 [18]: ~1 µM
- destruction of articular cartilage [19]: attenuated the destruction of articular cartilage
- MIC [20]: ~ 32 mg/L
- protection against thromboembolism [21]: replicated the protective effect
- weight gain [22]: decreased weight gain
- protection of CA1 pyramidal neurons ([23]; oral post-ischemia, AGN 350 and 400 mg/kg or D 25 mg/kg): spared the pyramidal neurons from ischemic death; also recorded: detectable protection
- spatial memory (8-ARMT) and learning memory (PAT) ([23]; post-treatment, 5 days following BOCCA): preserved spatial memory
- adipocyte differentiation [24]: significantly inhibited adipocyte differentiation

SMILES: CC(C)(O[C@@H]1O[C@H](CO)[C@@H](O)[C@H](O)[C@H]1O)[C@H]1Cc2cc3ccc(=O)oc3cc2O1 [Nodakenin, nodakenin]
- levels of IFN-γ, IL-12, IL-2, IL-6, and TNF-α in serum and spleen [25]: increased
- IC50 [2]: 68 µM
- apparent volume of distribution Vd ([5]; in vivo): 2800 L
- t1/2 ([5]; in vivo): 6.28 h
- breast cancer cell viability [26]: inhibited breast cancer cell viability
- t1/2 [27]: 3.3 h
- bone mass [28]: elevated mouse bone mass
- brain slice AChE activity [29]: lowered
- IC50 [30]: 84.7 µM
- osteoclastogenesis [31]: inhibited RANKL-induced osteoclastogenesis
- scopolamine-induced memory disruption [32]: ameliorate
- osteogenic differentiation [33]: promoted osteogenic differentiation
- downregulation of COX-2 mRNA expression ([34]; colon sample, 40 mg/kg): 1.98 fold
- downregulation of IL-1β mRNA expression ([34]; colon sample, 40 mg/kg): 1.29 fold
- downregulation of IL-18 mRNA expression ([34]; colon sample, 40 mg/kg): 1.17 fold
- downregulation of NFƙB mRNA expression ([34]; colon sample, 40 mg/kg): 1.24 fold
- downregulation of NLRP3 mRNA expression ([34]; colon sample, 40 mg/kg): 1.78 fold
- downregulation of iNOS mRNA expression ([34]; colon sample, 40 mg/kg): 1.2 fold
- disease activity index (DAI) score ([34]; gavage 10, 20, and 40 mg/kg): lowered the DAI score
- xenograft growth inhibition [35]: ~ 88%
- suppression of weight gain, dyslipidemia and fatty liver [36]: comparable potency to orlistat
- t1/2 ([37]; 2.5 mg/kg): 4.6 h
- t1/2 ([37]; 10 mg/kg): 6.2 h

SMILES: CN1CC[C@]23c4c5ccc(O)c4O[C@H]2[C@@H](O)C=C[C@H]3[C@H]1C5 [morphine, reference compound]
- time to tolerance development [38]: < 3 days
